From patent US10091998B2, “Tetrazolinone compound and use thereof” (SUMITOMO CHEMICAL COMPANY, LIMITED, priority 2013, dated 2018)

Test system: cucumber powdery mildew fungus (Sphaerotheca fuliginea, a QoI-resistant strain, cytochrome b position 143 glycine to alanine)
Format: in vivo
Conditions: 500 ppm spray on cucumber (SAGAMI HANJIRO); investigated 8 days after inoculation

## Cn1nnn(-c2ccccc2OCc2ccccc2)c1=O [1-[2-(phenylmethoxy)phenyl]-4-methyl-1,4-dihydrotetrazol-5-one]
  area of lesion on the treated plant relative to that on an untreated plant: ≥ 70%
